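All cell lines were grown in 96-well plates and treated with compound for 48 hours. GI50: concentration for 50% inhibition of growth. Definition used: TGI = concentration required for complete inhibition of growth.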
Columns and labels:
Assay in all cases: inhibition of tumour cell growth, NCI panel, 48 h
[1] = test system: HOP-62 NSCLC
[2] = test system: EKVX NSCLC
[3] = test system: M19-MEL melanoma
[4] = test system: MOLT-4 leukemia
[5] = test system: HOP-92 NSCLC
[6] = test system: HOP-18 NSCLC
[7] = test system: HT29 colon
[8] = test system: SK-OV-3 ovarian
[9] = test system: UO-31 renal
[10] = test system: RXF 393 renal

SMILES | TGI [1] [µM] | TGI [2] [µM] | TGI [3] [µM] | TGI [4] [µM] | TGI [5] [µM] | TGI [6] [µM] | TGI [7] [µM] | TGI [8] [µM] | TGI [9] [µM] | TGI [10] [µM] | GI50 [1] [µM] | GI50 [2] [µM] | GI50 [3] [µM] | GI50 [4] [µM] | GI50 [5] [µM] | GI50 [6] [µM] | GI50 [10] [µM] | GI50 [8] [µM] | GI50 [9] [µM]
COc1ccc(/C=N\N2C(=O)Cc3ccccc32)cc1 | > 100 | > 100 | > 100 | > 100 | 85.5 | > 100 | > 100 | > 100 | > 100 | – | – | – | – | – | – | – | – | – | –
CC(=O)OC1CC[C@@]2(C)C(CC(OC3OC(CO)C(O)C(O)C3O)[C@]3(C)C2CCC24CC23CC[C@H]4C(C)CC(O)[C@@H](O)C(C)(C)O)C1(C)C (stereo partly specified) | 40.1 | 48.6 | 16 | 24.7 | 19.5 | 41 | > 50 | > 50 | > 50 | 30.1 | – | – | – | – | – | – | – | – | –
COc1cc(OC)c(Oc2cccc(OC)c2OC)c(OC)c1 | > 100 | > 100 | > 100 | > 100 | > 100 | 89.5 | > 100 | > 100 | > 100 | – | – | – | – | – | – | – | – | – | –
COC1=C(C(=O)OC(C)(C)C)C23CCCCC2(C(C(=O)OC(C)(C)C)=C(OC)C3C(=O)OC(C)(C)C)C1C(=O)OC(C)(C)C (stereo unspecified) | > 100 | > 100 | > 100 | 44.4 | 89.5 | > 100 | > 100 | > 100 | > 100 | > 100 | – | – | – | – | – | – | – | – | –
Nc1ccc(Cl)cc1.Nc1ccc(Cl)cc1.Nc1ccc(Cl)cc1.O=C([O-])C(=O)[O-].O=C([O-])C(=O)[O-].[H+].[Ru+5] | – | > 100 | 2.15 | > 100 | > 100 | > 100 | > 100 | > 100 | > 26.8 | > 100 | 0.691 | 8.15 | 0.0537 | 1.2 | > 100 | > 100 | > 100 | > 100 | 0.927
Cn1c(=O)c(C2c3ccccc3Oc3c2c(=O)n(C)c2ccccc32)c(O)c2ccccc21 (stereo unspecified) | > 100 | > 100 | > 100 | > 100 | > 100 | > 100 | > 100 | > 100 | > 100 | > 100 | – | – | – | – | – | – | – | – | –
O=C(Nc1ccc(Cl)cc1Cl)c1c/c(=N\O)c2ccc(O)cc2o1 | > 100 | – | > 100 | > 100 | > 100 | > 100 | > 100 | > 100 | > 100 | > 100 | – | – | – | – | – | – | – | – | –
CCCCc1c2c(nc3c1CCc1cc(C=O)c(N)nc1-3)/C(=C/c1ccccc1)CCC2 | > 100 | > 100 | > 100 | > 100 | > 100 | > 100 | > 100 | > 100 | > 100 | > 100 | – | – | – | – | – | – | – | – | –
N#CC1(Cc2ccccc2Cl)c2ccccc2C=CN1C(=O)c1ccccc1 (stereo unspecified) | > 100 | > 100 | > 100 | > 100 | > 100 | > 100 | > 100 | > 100 | > 100 | > 100 | – | – | – | – | – | – | – | – | –
CCCCCCCCOCC(O)COC (stereo unspecified) | > 100 | – | > 100 | > 100 | > 100 | > 100 | > 100 | > 100 | > 100 | – | – | – | – | – | – | – | – | – | –
CCOC(=O)C(=C=Cc1cccs1)C(=O)c1ccccc1 | 33.9 | 31 | 32.1 | 48.5 | 19.1 | 34 | 34.5 | 62.8 | 27.3 | – | – | – | – | – | – | – | – | – | –
COC(=O)CC[C@@H](NC(=O)C(C)NC(=O)COC1C(O)C(COC(=O)CCCCCCCCCCNC(=O)c2ccc([N+](=O)[O-])c3[nH]c4cc(Br)ccc4c(=O)c23)OC(OCc2ccccc2)C1NC(C)=O)C(N)=O (stereo partly specified) | > 100 | > 100 | > 100 | > 100 | > 100 | > 100 | > 100 | > 100 | > 100 | 80.3 | – | – | – | – | – | – | – | – | –
CC(=O)OCC1OC(n2c(-c3ccc(N)cc3)cc(-c3ccco3)c(C#N)c2=O)C(OC(C)=O)C(OC(C)=O)C1OC(C)=O (stereo unspecified) | > 50 | > 50 | > 50 | > 50 | 33.9 | > 50 | > 50 | > 50 | > 50 | > 50 | – | – | – | – | – | – | – | – | –
O=C(/C=C(\O)C(=O)O)/C=C(\O)c1ccc(Cl)cc1 | > 100 | > 100 | > 100 | > 100 | > 100 | > 100 | > 100 | > 100 | > 100 | > 100 | – | – | – | – | – | – | – | – | –
O=C(CC1Sc2ccccc2NC1=O)Nc1ccc([N+](=O)[O-])cc1[N+](=O)[O-] (stereo unspecified) | > 100 | 69.2 | 30.3 | 62.6 | 31.3 | 46 | 33.1 | – | 25.1 | 26.3 | – | – | – | – | – | – | – | – | –
Cc1cccc2c1NC(c1c(C)[nH]c3ccccc13)C2 (stereo unspecified) | > 100 | > 100 | > 100 | > 100 | 17.2 | > 100 | > 100 | > 100 | > 100 | > 100 | – | – | – | – | – | – | – | – | –

Reference: PubChem BioAssay (NCI)
